Where two headings read alike, the source gives them in different places.
Legend:
NMDA receptor = assay: [3H]MK-801 binding assay, NMDA receptors in guinea pig brain membranes; conditions: for Relative affinity: compared to that of Memantine
Procedure: Hartley guinea pigs were sacrificed, and their brains were quickly removed and weighed. The brains then were homogenized in 50 mM Tris HCl buffer, pH 7.7, using a Polytron homogenizer. The homogenate was centrifuged at 40,000×g for 15 min, rehomogenized, and centrifuged again. The final pellet was resuspended in Tris-HCl, pH 7.7, at a final concentration of 6.67 mg original wet weight of tissue/ml. […] The samples were then filtered through glass fiber filters on a Tomtec cell harvester. The filters were washed 3 times with 3 ml of cold buffer. Filters were dried overnight and counted next day on a Wallac Betaplate Reader.
The binding experiments were conducted as follows. […] For each compound, graphs were prepared containing individual competition curves obtained for that compound. IC50 values and Hill coefficients were calculated using the program Prism. Ki values were calculated using the Chang Prusoff transformation: Ki=IC50/(1+L/Kd)
where L is radioligand concentration and Kd is the binding affinity of the radioligand, as determined previously by saturation analysis. […] In each experiment, one standard compound was simultaneously run on each 96 well plate.

[1] = tested on: primary neurons from rat cerebral cortex; assay: NMDA-induced LDH release assay in primary cortical neurons (neuroprotection); type: cell-based; parameters: Total LDH (Avg): unit not given here; conditions: for % (Control Wash = 100) / Secreted LDH (Avg) / Secreted/(total + secreted) (Avg) / Total LDH (Avg): MDT compound 30 uM, 24 hour incubation
Procedure: The neuroprotective properties of drugs have been studied in vitro, using neurons cultured from cortex, cerebellum or retina. […] Neurotoxicity is determined in this assay by measuring lactate dehydrogenase (LDH), a method which is simple, accurate and reproducible. We conducted pilot studies to test if poly-lysine-coated plates would be suitable as a matrix upon which to plate fetal neurons, compared to astrocyte-coated plates. We also compared the use of growth medium to neurobasal medium supplemented with B27 in the pilot experiments. The concentrations of NMDA (300-500 μM), glycine (10-50 μM), and memantine (10-100 μM) were varied, and optimum concentrations and times determined from these pilot studies were then chosen for the main study. The assay is described below.
Fetal rat neocortical cells were cultured on a mouse astroglial feeder layer. To obtain mouse astroglial cells for the feeder layer, cortices were harvested from 1-day old Swiss Webster mice (Charles River, Hollister, Calif.) according to the procedure described by Rose et al (1993). After dissecting cortices in ice-cold dissecting medium, they were minced and incubated in 0.09% trypsin in media stock for 1 hr, followed by resuspension in growth medium containing 10% equine serum and 10% fetal bovine serum. A single-cell suspension was obtained by triturating through fire-bored glass pipettes, and the resulting cell suspension was plated at a density of 0.5-0.75 hemispheres/24-well plate/9.6 ml, with 0.4 ml/well. Plates were incubated in a humidified incubator at 37° C., 5% CO2. Astroglial cells become confluent in about 2-3 weeks, at which time these cultures are ready to be used as feeder layers upon which neuronal cultures can be plated. Neuronal cells were obtained from gestational Sprague-Dawley rats E16-E18, using a similar dissection procedure. Rat embryos were dissected to obtain cortical tissue, which was plated as a single-cell suspension at a density of 1.4 hemispheres/24-well plate/9.6 ml, with 0.4 ml/well. These cells were plated on the existing astroglial feeder layer, and were incubated at 37° C., 5% CO2. After 5 days in culture, cytosine arabinoside (10 μM) was added to the wells to inhibit glial cell proliferation, and after 24 hours, the medium was replaced with fresh growth medium. Cells were fed with fresh growth medium every 2 days, until the experiments were performed. For coating plates with poly-lysine, we used poly-d-lysine hydrobromide (Sigma Cat # P7280) at a concentration of 0.1 mg/ml to coat each well using a minimum volume of 0.2 ml/well. After coating for 5 minutes, the solution was aspirated and wells were rinsed thoroughly with sterile tissue culture grade water. After drying for 2 hours, plates were ready for use. Neuronal cultures were plated onto poly-lysine-coated plates at the same density as above. For the pilot study, some of the cultures were fed with 1:1 ratio of growth medium: neurobasal medium (GIBCO)+B-27 supplement (2%), while the rest of the cultures were fed with growth medium alone (Losi et al., 2006). For the main study, we used astroglial feeder layers to plate the neuronal cultures, and used a mix (1:1) of growth medium with neurobasal medium+B-27 supplement for feeding the cultures.
After 11-14 days in culture, neuronal cells were confluent and experiments were performed. Cells were washed twice using sterile Locke's buffer (154 mM NaCl, 5.6 mM KCl, 2.3 mM CaCl2, 3.6 mM NaHCO3, 5.5 mM D-glucose, 5 mM HEPES, pH 7.4), and then exposed to the various treatment compounds. […] After 15 minutes, cultures were washed twice and incubated overnight in media stock. After 24 hours, supernatants and lysates were collected to measure LDH activity. LDH activity was measured by the reduction of NAD, which was utilized in the stoichiometric conversion of a tetrazolium dye using a kit (Sigma TOX-7). Supernatants were removed from the wells and centrifuged before LDH measurements. The adherent cells were lysed to obtain total LDH. […]

[2] = guinea pig brain membrane preparation (Table 29), read-out: Ki
[3] = Plate #5, astrocyte-coated rat neurons, GM fed
[4] = [3H]MK-801 (1 nM), guinea pig brain membrane preparation, read-out: Ki (binding affinity)
[5] = Plate #4, poly-lysine-coated rat neurons, GM/NB + B-27 fed
[6] = astrocyte-coated rat neurons, GM/NB + B-27 fed

Compound | Ki (NMDA receptor; [2]) [µM] | Relative affinity (NMDA receptor) | other results
CC12CC3C4CC5(C)CC3C(C1)C(O)(C5)C4C2 [MDT-47, 4,9-dimethyl-1-hydroxydiamantane] | > 1000 | – | –
mixture of 1-amino-4-methyldiamantane and 2-amino-4-methyldiamantane [MDT-32] | 11.4 ± 3.7 | 0.064 | –
CC12CC3CC4C1CC1CC2C(N)(C3)C4(C)C1 (centres unmarked) [MDT-43, 1,6-dimethyl-2-aminodiamantane] | 5.1 ± 0.7 | 0.143 | EC50 ([1]; Rattus norvegicus, Primary neuron, two experiments, 300 uM NMDA + 50 μM glycine 15 minutes, LDH after 24 hours, read-out: average EC50 (±SD), NMDA-induced LDH release): 28.4 ± 12.8 µM
OC12CC3C4CC5C6CC7CC5C(C4C1)C(C7)(C2)C63 [MDT-42] | > 1000 | – | –
OC12CC3CC4C1CC1CC4C(O)(C3)C2C1 [MDT-13] | > 1000 | – | –
NC12CC3CC4C5CC(CC41)CC2C5C3 [MDT #2] | – | – | % (Control Wash = 100) [1, 3]: 118%; Secreted LDH (Avg) [1, 3]: 0.23; Secreted/(total + secreted) (Avg) [1, 3]: 6.93; Total LDH (Avg) [1, 3]: 3.09
CC12CC3CC4C1CC1(N)CC2C(C3)C4(C)C1 [MDT-23 (prep from Example 4)] | 3.9 ± 0.07 | 0.187 | –
OC12CC3C4CC5C6CC7(O)CC5C(C4C1)C(C2)(C7)C36 [MDT-15] | > 1000 | – | –
CC12CC3CC4C1CC1(N)CC2C(C3)C4(N)C1 [MDT-29] | 41 ± 10.7 | 0.018 | –
CC12CC3CC4C1CC1(CN)CC2C(C3)C4(C)C1 [MDT-65] | 7.3 ± 1.1 | 0.100 | –
CC(N)C12CC3CC4C5CC(CC41)CC2C5C3 (centres unmarked) [MDT-57] | 4 ± 0.1 | 0.183 | –
OC12C3CC4CC5C3CC3C6CC(CC31)CC2(C4)C56 [MDT-40] | > 1000 | – | –
NC12CC3C4CC5(N)CC3C(C1)C(C5)C4C2 [MDT-5] | 268 ± 19 | 0.003 | –
O=C(O)C12CC3CC4C1CC1CC2C(C3)C4(C(=O)O)C1 [MDT-39] | > 1000 | – | –
CC12CC3CC4C1CC1CC2C(O)(C3)C4(C)C1 (centres unmarked) [MDT-44, 1,6-dimethyl-2-hydroxydiamantane] | > 1000 | – | –
Cl.NCC12CC3C4CC5CC3C(C1)C(C5)C4C2 [MDT-61] | 8 ± 0.9 | 0.091 | –
mixture of 1-methyl-2-aminodiamantane and 1-methyl-6-aminodiamantane [MDT-31] | 3.9 ± 0.2 | 0.187 | –
CC12CC3CC4C1CC1(N)CC2C(C3)C4(C)C1 [MDT-23 (prep from Example 5)] | 3 ± 0.9 | 0.243 | –
OC12CC3C4CC5CC3C(C1)C(C5)C4C2 [MDT-11] | > 1000 | – | –
NC12CC3CC4C5CC(CC41)CC2C5C3 [MDT-2] | 6.4 ± 0.13 | 0.114 | –
O=NC12CC3C4CC5CC3C(C1)C(C5)C4C2 [MDT-27] | > 1000 | – | –
CC12CC3(N)CC4C5CC(CC41)CC2C5C3 (single isomer, unassigned) [MDT-22 (prep from Example 7)] | 10.5 ± 1 | 0.070 | –
OC12CC3CC4C5CC(CC41)CC2C5C3 [MDT-10] | > 1000 | – | –
O=C1C2CC3C4CC5CC3C1C(C5)C4C2 [MDT-59] | > 1000 | – | –

Compound | Ki (NMDA receptor; [2]) [µM] | Relative affinity (NMDA receptor) | other results
CC12CC3(N)CC4C5CC(N)(CC41)CC2C5C3 [MDT-28, 1-methyl-4,9-diaminodiamantane] | > 1000 | – | –
NC12CC3CC4C5CC(CC41)CC2C5C3 [MDT #1] | – | – | % (Control Wash = 100) [1, 3]: 99%; Secreted LDH (Avg) [1, 3]: 0.18; Secreted/(total + secreted) (Avg) [1, 3]: 5.81; Total LDH (Avg) [1, 3]: 2.96
O=NC12CC3CC4C5CC(CC41)CC2C5C3 [MDT-26] | > 1000 | – | –
NC12CC3CC4C5CC(CC41)CC2C5C3 [MDT-1] | 7.5 ± 2.4 | 0.097 | –
NCC12CC3CC4C5CC(CC41)CC2C5C3 [MDT-56] | 9.8 ± 4.5 | 0.074 | –
CC12CC3CC4C1CC1(N)CC2C(C3)C4(C)C1 [MDT-33, 1,6-dimethyl-4-aminodiamantane] | 7.8 ± 0.9 | 0.094 | –
CC12CC3CC4C1CC1(O)CC2C(C3)C4(C)C1 [MDT-45, 1,6-dimethyl-4-hydroxydiamantane] | 98.6 ± 0.1 | 0.007 | –
CC12CC3C4CC5(C)CC3C(C1)C(CN)(C5)C4C2 [MDT-63] | 5.1 ± 0.3 | 0.143 | –
CC12CC3C4CC5(C)CC(C(C1)C3(N)C5)C4(N)C2 [MDT-53, 4,9-dimethyl-1,6-diaminodiamantane] | 112 ± 14 | 0.007 | –
1,6-dimethyl-4-aminodiamantane mixture [MDT-7] | 9.9 ± 0.45 | 0.074 | –
NC12CC3CC4C1CC1CC2C(C3)C4(N)C1 [MDT-4] | 99.6 ± 7.6 | 0.007 | –
NC12CC3C4CC5C6CC7CC5C(C4C1)C(C7)(C2)C63 [MDT-49, 9-amino-triamantane] | – | 0.002 | Ki (NMDA receptor; [4]): 389 µM
3-amino-triamantane [MDT-48] | – | 0.052 | Ki (NMDA receptor; [4]): 14 µM
O=C(O)C12CC3CC4C5CC(CC41)CC2C5C3 [MDT-38] | > 1000 | – | –
OC12CC3C4CC5(O)CC3C(C1)C(C5)C4C2 [MDT-14] | > 1000 | – | –
OC12CC3CC4C1CC1C5CC6CC1C2C(C6)(C3)C54 (centres unmarked) [MDT-41] | > 1000 | – | –
CC12CC3C4CC5CC3C(C1)C(C5)C4C2 [MDT-60] | > 1000 | – | –
1,6-dimethyl-2-aminodiamantane mixture [MDT-6] | 4.6 ± 0.18 | 0.159 | –
NC12CC3C4CC5(N)CC3C(C1)C(C5)C4C2 [MDT #5] | – | – | % (Control Wash = 100) [1, 3]: 123%; Secreted LDH (Avg) [1, 3]: 0.25; Secreted/(total + secreted) (Avg) [1, 3]: 7.21; Total LDH (Avg) [1, 3]: 3.27
OC12CC3CC4C1CC1CC4C(O)(C3)C2C1 [MDT #13] | – | – | % (Control Wash = 100) [1, 5]: 139%; Secreted LDH (Avg) [1, 5]: 0.54; Secreted/(total + secreted) (Avg) [1, 5]: 15.25; Total LDH (Avg) [1, 5]: 2.99; % (Control Wash = 100) [1, 6]: 276%; Secreted LDH (Avg) [1, 6]: 0.85; Secreted/(total + secreted) (Avg) [1, 6]: 19.97; Total LDH (Avg) [1, 6]: 3.41
CC12CC3(N)CC4C5CC(CC41)CC2C5C3 (single isomer, unassigned) [MDT-22 (prep from Example 4)] | 2.2 ± 0.9 | 0.332 | –
CC12CC3C4CC5(C)CC3C(C1)C(C(=O)O)(C5)C4C2 [MDT-52, 4,9-dimethyl-1-diamantanecarboxylic acid] | > 1000 | – | –
CC12CC3CC4C1CC1(C(=O)O)CC2C(C3)C4(C)C1 [MDT-46, 1,6-dimethyl-4-diamantanecarboxylic acid] | > 1000 | – | –
mixture of 4-methyl-9-aminodiamantane and 4-aminodiamantane [MDT-34] | > 1000 | – | –

— patent publication US20080009546A1 (Chevron U.S.A. Inc., priority 2005, published 2008)
